Results on 12 compounds are retold here after patent US20240270740A1, “INHIBITORS OF CYCLIC GMP-AMP SYNTHASE AND USES THEREOF” (Ventus Therapeutics U.S., Inc., priority 2022, published 2024).

Sequence of hcGAS (Q8N884 whole entry): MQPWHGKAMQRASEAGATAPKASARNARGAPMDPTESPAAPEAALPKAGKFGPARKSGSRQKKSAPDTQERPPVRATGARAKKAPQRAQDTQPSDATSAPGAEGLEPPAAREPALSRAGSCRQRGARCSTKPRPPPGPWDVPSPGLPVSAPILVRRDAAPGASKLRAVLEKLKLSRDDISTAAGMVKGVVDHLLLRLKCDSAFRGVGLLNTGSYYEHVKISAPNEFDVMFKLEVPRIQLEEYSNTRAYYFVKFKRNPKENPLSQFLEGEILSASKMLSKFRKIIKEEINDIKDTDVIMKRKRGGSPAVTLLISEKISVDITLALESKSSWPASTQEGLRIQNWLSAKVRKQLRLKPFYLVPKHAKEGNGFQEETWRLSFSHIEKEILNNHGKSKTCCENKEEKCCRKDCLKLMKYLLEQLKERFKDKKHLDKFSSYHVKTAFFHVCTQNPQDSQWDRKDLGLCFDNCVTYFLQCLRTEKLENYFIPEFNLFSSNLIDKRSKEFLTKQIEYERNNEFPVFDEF

The test concerns the target hcGAS (Homo sapiens, UniProt Q8N884). Description: hcGAS Kinase-Glo assay (ATP depletion). The test is classed as biochemical. As to conditions: 40 nM hcGAS, 100 μM ATP, 100 μM GTP, 25 nM dsDNA, 3 h incubation. Here is the method: cGAS catalyzes the cyclization of ATP and GTP to produce cGAMP, which is the activating ligand of STING. Human cGAS (hcGAS) inhibition can thus be quantified by measuring how much cGAMP is formed either indirectly, by monitoring ATP-depletion as in the hcGAS Kinase-Glo assay (as described below), or directly, such as using the hcGAS LCMS assay (as described below).
(i) hcGAS Kinase-Glo Assay
Compounds were tested for their human-cGAS […] inhibition activity using the methodology reported in Lama et al., “Development of human cGAS-specific small molecule inhibitors for repression of dsDNA-triggered interferon expression”, Nature Communications 10, Article number: 2261 (2019), with slight changes to some conditions as shown in Table B.
The results of the assay, expressed in IC50 values, are reported in Table D with the following designations: A represents an IC50 value<0.01 μM; B represents an IC50 value≥0.01 μM and <0.03 μM; C represents an IC50 value≥0.03 μM and <0.1 μM; D represents an IC50 value≥0.1.
A general note: In Kinase-Glo more light means more ATP remaining.
What is called IC50 is the concentration that gives 50% inhibition. A high value points to a need for much substance. `COc1c(N2CCC[C@@H]2CO)cc(C(=O)Nc2nnc(-n3nccc3C)s2)oc1=O` [Compound 34, (R)-4-(2-(hydroxymethyl)pyrrolidin-1-yl)-5-methoxy-N-(5-(5-methyl-1H-pyrazol-1-yl)-1,3,4-thiadiazol-2-yl)-6-oxo-6H-pyran-2-carboxamide] displayed an IC50 of 30 to 100 nM. The figure for `COc1c(N[C@@H]2CC[C@H]2O)cc(C(=O)Nc2nnc(-n3nccc3C)s2)oc1=O` (racemic) [Rac-37, 4-(((1R,2R)-2-hydroxycyclobutyl)amino)-3-methoxy-N-(5-(5-methyl-1H-pyrazol-1-yl)-1,3,4-thiadiazol-2-yl)-2-oxo-2H-pyran-6-carboxamide] is 10 to 30 nM; for `COc1c(NCC(F)(F)F)cc(C(=O)Nc2nnc(-n3nccc3C)s2)oc1=O` [Compound 90, 3-methoxy-N-(5-(5-methyl-1H-pyrazol-1-yl)-1,3,4-thiadiazol-2-yl)-2-oxo-4-((2,2,2-trifluoroethyl)amino)-2H-pyran-6-carboxamide] it is 10 to 30 nM. The same measure for `COc1c(NCCN(C)C)cc(C(=O)Nc2nnc(-n3nccc3C)s2)oc1=O` [Compound 181, 4-((2-(dimethylamino)ethyl)amino)-3-methoxy-N-(5-(5-methyl-1H-pyrazol-1-yl)-1,3,4-thiadiazol-2-yl)-2-oxo-2H-pyran-6-carboxamide]: ≥ 100 nM. Regarding `COc1c(NC2CCS(=O)(=O)CC2)cc(C(=O)Nc2nnc(-n3nccc3C)s2)oc1=O` [Compound 29, 4-((1,1-dioxidotetrahydro-2H-thiopyran-4-yl)amino)-3-methoxy-N-(5-(5-methyl-1H-pyrazol-1-yl)-1,3,4-thiadiazol-2-yl)-2-oxo-2H-pyran-6-carboxamide], the IC50 lay in the range of 30 to 100 nM. The figure for `CCc1ccnn1-c1nnc(NC(=O)c2cc(NCCOC)c(OC)c(=O)o2)s1` [Compound 141, N-(5-(5-ethyl-1H-pyrazol-1-yl)-1,3,4-thiadiazol-2-yl)-3-methoxy-4-((2-methoxyethyl)amino)-2-oxo-2H-pyran-6-carboxamide] is ≥ 100 nM. With `COC[C@H]1CCN(c2cc(C(=O)Nc3nnc(-n4nccc4C)s3)oc(=O)c2OC)C1` [Compound 87, (S)-3-methoxy-4-(3-(methoxymethyl)pyrrolidin-1-yl)-N-(5-(5-methyl-1H-pyrazol-1-yl)-1,3,4-thiadiazol-2-yl)-2-oxo-2H-pyran-6-carboxamide], the IC50 lay in the range of 30 to 100 nM. The figure for `COCCNc1cc(C(=O)Nc2nnc(-n3nccc3C(F)F)s2)oc(=O)c1OC` [Compound 144, N-(5-(5-(difluoromethyl)-1H-pyrazol-1-yl)-1,3,4-thiadiazol-2-yl)-3-methoxy-4-((2-methoxyethyl)amino)-2-oxo-2H-pyran-6-carboxamide] is 10 to 30 nM. The same measure for `COc1c(NC2COC2)cc(C(=O)Nc2nnc(-n3nccc3C)s2)oc1=O` [Compound 104, 3-methoxy-N-(5-(5-methyl-1H-pyrazol-1-yl)-1,3,4-thiadiazol-2-yl)-4-(oxetan-3-ylamino)-2-oxo-2H-pyran-6-carboxamide]: 30 to 100 nM. The compound `COc1c(N[C@H]2C[C@@H](OC)C2)cc(C(=O)Nc2nnc(-n3nccc3C)s2)oc1=O` [Compound 9, 3-methoxy-4-(((1,3-cis)-3-methoxycyclobutyl)amino)-N-(5-(5-methyl-1H-pyrazol-1-yl)-1,3,4-thiadiazol-2-yl)-2-oxo-2H-pyran-6-carboxamide] returned an IC50 of 30 to 100 nM. The figure for `COc1c(NC23CC(CO)(C2)C3)cc(C(=O)Nc2nnc(-n3nccc3C)s2)oc1=O` [Compound 218, 4-((3-(hydroxymethyl)bicyclo[1.1.1]pentan-1-yl)amino)-3-methoxy-N-(5-(5-methyl-1H-pyrazol-1-yl)-1,3,4-thiadiazol-2-yl)-2-oxo-2H-pyran-6-carboxamide] is 10 to 30 nM; for `COCC1CCN(c2cc(C(=O)Nc3nnc(-n4nccc4C)s3)oc(=O)c2OC)CC1` [Compound 2, 3-methoxy-4-(4-(methoxymethyl)piperidin-1-yl)-N-(5-(5-methyl-1H-pyrazol-1-yl)-1,3,4-thiadiazol-2-yl)-2-oxo-2H-pyran-6-carboxamide] it is 10 to 30 nM.
